Data as given in the CheMixHub viscosity set.

Assay: xn = mol fraction of the nth substance listed

CC(O)CO (stereo not given) + CCOC(C)=O
viscosity [mPa·s], 101.3 kPa
Conditions	x2 = 0.0929	x2 = 0.1906	x2 = 0.2984	x2 = 0.4082	x2 = 0.5085	x2 = 0.6062	x2 = 0.7032	x2 = 0.7968	x2 = 0.8998
298.15 K	20.11	10.09	5.084	2.919	1.869	1.238	0.8932	0.6933	0.5327
303.15 K	15.92	8.28	4.306	2.516	1.663	1.115	0.8175	0.6419	0.5008
308.15 K	12.64	6.743	3.661	2.193	1.47	1.011	0.7525	0.5957	0.4714
313.15 K	10.17	5.587	3.146	1.924	1.313	0.9178	0.6971	0.5565	0.4442
318.15 K	8.35	4.705	2.729	1.705	1.177	0.8394	0.6418	0.5191	0.4197
323.15 K	6.893	4.021	2.377	1.514	1.072	0.7691	0.5964	0.4882	0.3962

O=C1CCCC1 + CN(C)c1ccccc1
viscosity [mPa·s], 101 kPa
Conditions	303.15 K	308.15 K
x2 = 0.0705	1.022	0.948
x2 = 0.1321	1.04	0.964
x2 = 0.2014	1.062	0.981
x2 = 0.2754	1.083	0.997
x2 = 0.3412	1.101	1.011
x2 = 0.4012	1.114	1.023
x2 = 0.4825	1.13	1.039
x2 = 0.5612	1.143	1.053
x2 = 0.6405	1.153	1.066
x2 = 0.7025	1.158	1.076
x2 = 0.7758	1.164	1.087
x2 = 0.8512	1.168	1.096
x2 = 0.9215	1.169	1.104

[Al] + [Ga]
323 K, 101 kPa
Conditions	viscosity [mPa·s]
x1 = 0.021	1.529
x1 = 0.1	1.638

C1COCCN1 + OCCO
viscosity [mPa·s], 101 kPa
Conditions	293.15 K	303.15 K	313.15 K	323.15 K
x1 = 0.06476	23.01	–	–	–
x1 = 0.06828	–	–	9.851	–
x1 = 0.07	23.22	15.77	9.66	7
x1 = 0.2	24.69	16.33	10.32	7.69
x1 = 0.2273	24.37	–	–	–
x1 = 0.2296	–	–	10.49	–
x1 = 0.4	21.35	14.19	9.34	7.13
x1 = 0.4103	20.98	–	–	–
x1 = 0.4144	–	–	9.259	–
x1 = 0.6	11.83	8.07	6.02	4.41
x1 = 0.6173	–	–	6.339	–
x1 = 0.6201	11.78	–	–	–
x1 = 0.8601	4.454	–	–	–
x1 = 0.8629	–	–	2.391	–
x1 = 0.9	3.94	2.92	2.24	1.72

CCCCCCCC[P+](CC)(CC)CC.N#Cc1ccc[n-]1 + OCCN(CCO)CCO
viscosity [mPa·s], 100 kPa
Conditions	293.15 K	298.15 K	303.15 K	313.15 K
x1 = 0.014	950	622	405	185
x1 = 0.025	986	640	415	190
x1 = 0.039	1004	657	426	193
x1 = 0.049	1011	660	426	193
x1 = 0.104	939	596	380	175
x1 = 0.167	824	539	351	163
x1 = 0.223	812	533	352	166
x1 = 0.315	722	474	314	152
x1 = 0.508	619	422	284	140
x1 = 0.647	600	406	273	136
x1 = 0.809	438	301	202	101

ClC=C(Cl)Cl + CCC(C)(C)O
298.15 K, 101 kPa
Conditions	viscosity [mPa·s]
x2 = 0.0494	0.556
x2 = 0.101	0.576
x2 = 0.1994	0.626
x2 = 0.2988	0.69
x2 = 0.3984	0.779
x2 = 0.4991	0.909
x2 = 0.5974	1.08
x2 = 0.7	1.353
x2 = 0.7976	1.723
x2 = 0.9001	2.365

C1COCCN1 + NCCO
viscosity [mPa·s], 101 kPa
Conditions	293.15 K	303.15 K	313.15 K	323.15 K
x1 = 0.06557	20.7	–	–	–
x1 = 0.06901	–	–	8.726	–
x1 = 0.07	21.21	13.58	8.71	6.21
x1 = 0.2	14.61	9.65	6.44	4.68
x1 = 0.2273	–	–	6.709	–
x1 = 0.2293	14.65	–	–	–
x1 = 0.4	9.19	6.31	4.57	3.36
x1 = 0.4108	–	–	4.506	–
x1 = 0.4137	9.258	–	–	–
x1 = 0.6	5.53	3.97	2.94	2.24
x1 = 0.616	5.651	–	–	–
x1 = 0.6175	–	–	3.337	–
x1 = 0.8608	3.673	–	–	–
x1 = 0.8622	–	–	2.454	–
x1 = 0.9	3.22	2.54	1.98	1.61

CC(O)CO (stereo not given) + CCCCCCCO
Conditions	viscosity [mPa·s]
303.15 K, 101 kPa, x2 = 0.6097	7.655

CC(O)CO (stereo not given) + CC(C)CO
viscosity [mPa·s], 100 kPa
Conditions	x2 = 0.101	x2 = 0.2	x2 = 0.3	x2 = 0.4	x2 = 0.5	x2 = 0.6	x2 = 0.7	x2 = 0.8	x2 = 0.9
298.15 K	29.95	22.5	16.76	12.73	9.74	7.778	6.056	4.843	3.968
303.15 K	22.85	17.38	13.28	10.21	7.878	6.366	5.037	4.08	3.366
308.15 K	17.8	13.79	10.5	8.284	6.476	5.284	4.197	3.45	2.869
313.15 K	14.12	11.03	8.532	6.802	5.362	4.42	3.54	2.939	2.471
318.15 K	11.32	8.884	6.942	5.599	4.486	3.744	3.013	2.533	2.129
323.15 K	9.291	7.286	5.767	4.693	3.766	3.185	2.59	2.192	1.846

ClC=C(Cl)Cl + CO
viscosity [mPa·s], 101 kPa
Conditions	293.15 K	303.15 K	313.15 K	323.15 K
x2 = 0.017	0.554	0.507	0.466	0.429
x2 = 0.057	0.56	0.509	0.466	0.427
x2 = 0.152	0.58	0.523	0.476	0.435
x2 = 0.1523	–	0.56	0.524	0.473
x2 = 0.286	0.605	0.541	0.485	0.441
x2 = 0.3071	–	0.55	0.518	0.4735
x2 = 0.446	–	0.54	0.511	0.473
x2 = 0.562	0.656	0.576	0.508	0.452
x2 = 0.5963	–	0.53	0.505	0.474
x2 = 0.6	0.667	0.581	0.513	0.455
x2 = 0.699	0.674	0.59	0.519	0.461
x2 = 0.72	0.67	0.587	0.517	0.458
x2 = 0.756	–	0.518	0.497	0.475
x2 = 0.78	0.663	0.578	0.508	0.45
x2 = 0.9011	–	0.508	0.492	0.476
x2 = 0.92	0.62	0.543	0.477	0.423

Cc1ccccn1 + Cc1ccccc1
viscosity [mPa·s], 101 kPa
Conditions	x2 = 0.2	x2 = 0.4	x2 = 0.6	x2 = 0.8
293.15 K	0.76	0.714	0.668	0.624
313.15 K	0.593	0.558	0.525	0.494

CCCCCCCC[P+](CC)(CC)CC.N#Cc1ccc[n-]1 + OCC(O)CO
viscosity [mPa·s], 100 kPa
Conditions	293.15 K	298.15 K	303.15 K	313.15 K
x1 = 0.031	1533	966	621	248
x1 = 0.071	1550	996	617	248
x1 = 0.109	1457	916	581	228
x1 = 0.16	1330	825	540	240
x1 = 0.222	1133	699	428	198
x1 = 0.297	903	584	405	187
x1 = 0.393	672	437	289	150
x1 = 0.457	608	408	274	138
x1 = 0.532	545	368	251	134
x1 = 0.615	519	357	245	129
x1 = 0.742	434	291	197	105
x1 = 0.833	372	252	167	89
